Data as given in patent US11970471B1, “3-(4-chlorophenyl)-5-{[5-methyl-2-(propan-2-yl)phenoxy]methyl }- 1,2,4-oxadiazole as an antitumor and antimicrobial compound” (KING FAISAL UNIVERSITY, priority 2023, dated 2024).

Key:
[1] = system: Human prostate cancer cells (PC3); assay: Cytotoxicity by SRB assay, PC3 cells; assay type: cell-based; details: 0.01 μM to 100 μM for 72 h
Protocol: (§1) Human prostate cancer cells (PC3) and human osteosarcoma cells (MG-63) were obtained from Nawah Scientific Inc. (Mokatam, Cairo, Egypt) and cultured in DMEM (Dulbecco's modified eagle's medium), Gibco, USA, supplemented with fetal bovine serum (FBS) at a concentration of 10% and 100 U/mL of penicillin and streptomycin (PS). The cells were incubated at 37° C. in a humidified environment that contained 5% CO2. Cells were seeded in 96-well plates as aliquots of 100 μL cell suspension and incubated in a complete media for 24 h. afterward, cells were treated with 3-(4-chlorophenyl)-5-{[5-methyl-2-(propan-2-yl)phenoxy]methyl}-1,2,4-oxadiazole at diverse concentrations ranging from 0.01 μM to 100 μM for 72 h. Then, cells were fixed at 4° C. for one hour with 150 μL of 10% trichloroacetic acid (TCA). After washing the cells five times with distilled water, 70 μL of sulforhodamine (SRB) solution (0.4% w/v) was added and incubated for 10 min at room temperature in a dark place. […] Then, 150 μL of Tris pH 10.5 (10 mM) was added, and the absorbance was measured at 540 nm using a BMG LABTECH®-FLUOstar Omega microplate reader (Ortenberg, Germany). Half maximal inhibitory concentrations (IC50) values were calculated for each experiment using GraphPad Prism 6 software. […] The inhibition was calculated using the following equation: Inhibition %=100−Average Viability

[2] = system: human osteosarcoma cells (MG-63); assay: Cytotoxicity by SRB assay, MG-63 cells; assay type: cell-based; details: 0.01 μM to 100 μM for 72 h
Protocol: as §1

Cc1ccc(C(C)C)c(OCc2nc(-c3ccc(Cl)cc3)no2)c1 [3-(4-chlorophenyl)-5-{[5-methyl-2-(propan-2-yl)phenoxy]methyl}-1,2,4-oxadiazole]
antiproliferative activity [1]: excellent antiproliferative activities | antiproliferative activity [2]: excellent antiproliferative activities | melting point: 166 to 167 °C
